Test results reported in ChEMBL document CHEMBL1134759, “Synthesis of a novel C-10 spiro-epoxide of paclitaxel” (Bioorg Med Chem Lett, 2001).
pIC50: −log10 of the molar value.

How the values were obtained:
A2780 = assay: In vitro inhibitory activity against Ovarian A2780 cell line was determined.; format: functional, cell-based; conditions: Homo sapiens
HCT-116 [1] = assay: In vitro inhibitory activity against colon carcinoma HCT 116 cell line was determined.; format: functional, cell-based; conditions: Homo sapiens
[2] = biological target: Tubulin alpha chain (Sus scrofa) (UniProt P02550); assay: Potency to that of potency of paclitaxel in Tubulin polymerization assay; format: functional
HCT-116 [3] = assay: In vitro inhibitory activity against Paclitaxel resistant colon carcinoma HCT VM46 cell line was determined.; format: functional, cell-based; conditions: Homo sapiens

Chain of Tubulin alpha chain (Sus scrofa) (P02550 whole entry, looked up): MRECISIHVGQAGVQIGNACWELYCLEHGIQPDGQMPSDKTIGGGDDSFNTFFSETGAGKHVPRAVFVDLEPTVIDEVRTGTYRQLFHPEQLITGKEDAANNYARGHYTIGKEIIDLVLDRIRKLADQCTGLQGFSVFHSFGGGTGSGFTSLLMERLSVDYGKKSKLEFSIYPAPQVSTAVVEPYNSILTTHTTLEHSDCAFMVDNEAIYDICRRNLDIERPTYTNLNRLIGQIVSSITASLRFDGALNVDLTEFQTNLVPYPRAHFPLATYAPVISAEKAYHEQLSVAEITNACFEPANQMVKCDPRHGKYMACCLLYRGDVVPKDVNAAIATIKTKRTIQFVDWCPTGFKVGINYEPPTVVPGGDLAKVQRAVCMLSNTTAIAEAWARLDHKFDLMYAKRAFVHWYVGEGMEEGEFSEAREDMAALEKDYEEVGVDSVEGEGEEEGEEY

`CC(=O)O[C@H]1C(=O)[C@@]2(C)C([C@H](OC(=O)c3ccccc3)C3(O)C[C@H](OC(=O)[C@H](O)[C@@H](NC(=O)c4ccccc4)c4ccccc4)C(C)=C1C3(C)C)[C@]1(OC(C)=O)COC1C[C@@H]2O` (some centres not stated) showed a pIC50 (A2780) of 8.46, a pIC50 (HCT-116 [1]) of 8.54 and a Ratio [2] of 1. The pIC50 (HCT-116 [3]) was under 6.93.

`CC(=O)O[C@@]12COC1C[C@H](O)[C@@]1(C)C(=O)[C@@]3(CO3)C3=C(C)[C@@H](OC(=O)[C@H](O)[C@@H](NC(=O)c4ccccc4)c4ccccc4)CC(O)([C@@H](OC(=O)c4ccccc4)C21)C3(C)C` (some centres not stated) gave a pIC50 (A2780) of 8.60, a pIC50 (HCT-116 [1]) of 8.70 and a Ratio [2] of 0.5. The pIC50 (HCT-116 [3]) was under 6.92.

For `COCO[C@H]1CC2OC[C@@]2(OC(C)=O)C2[C@H](OC(=O)c3ccccc3)C3(O)C[C@H](OC(=O)[C@H](O)[C@@H](NC(=O)c4ccccc4)c4ccccc4)C(C)=C(C3(C)C)[C@@]3(CO3)C(=O)[C@@]21C` (some centres not stated), the pIC50 (A2780) was 8.74, the pIC50 (HCT-116 [1]) was 8.82 and the Ratio [2] was 0.7. The pIC50 (HCT-116 [3]) was 7.85.
